# Data from PubChem BioAssay AID2060513 (Molecular Pharmacology Branch, DTP, NCI, 2025).
# pIC50: −log10 of the molar value.
# Tested on: 299254-011-R-J1-PDC complex spheroids viability
# Experiment: Anticancer human tumor 299254-011-R-J1-PDC patient-derived melanoma cell line growth inhibition [GQUAD]
# Conditions: for pIC50: curve of first compound; for viability, T/C: stronger effect = lower value
# Method in brief: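 Viability of tumor cells grown as complex spheroids with endothelial and stromal cells, exposed to drug combinations. Top concentration at or near clinical Cmax (else 10 microM), diluted in half-log increments.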
# [1] = second compound 0.0316 µM, first compound 0.0316 µM
# [2] = second compound 0.0316 µM, first compound 0.316 µM
# [3] = second compound 0.1 µM, first compound 0.0316 µM
# [4] = second compound 0.1 µM, first compound 0.316 µM
# [5] = second compound 0.316 µM, first compound 0.0316 µM
# [6] = second compound 0.316 µM, first compound 0.316 µM
# [7] = second compound 1 µM, first compound 0.0316 µM
# [8] = second compound 1 µM, first compound 0.316 µM
# [9] = second compound 3.16 µM, first compound 0.0316 µM
# [10] = second compound 3.16 µM, first compound 0.316 µM
# [11] = second compound 10 µM, first compound 0.0316 µM
# [12] = second compound 10 µM, first compound 0.316 µM
# [13] = second compound 0.0316 µM, first compound 0.1 µM
# [14] = second compound 0.0316 µM, first compound 1 µM
# [15] = second compound 0.0316 µM, first compound 3.16 µM
# [16] = second compound 0.0316 µM, first compound 10 µM
# [17] = second compound 0.1 µM, first compound 0.1 µM
# [18] = second compound 0.1 µM, first compound 1 µM
# [19] = second compound 0.1 µM, first compound 3.16 µM
# [20] = second compound 0.1 µM, first compound 10 µM
# [21] = second compound 0.316 µM, first compound 0.1 µM
# [22] = second compound 0.316 µM, first compound 1 µM
# [23] = second compound 0.316 µM, first compound 3.16 µM
# [24] = second compound 0.316 µM, first compound 10 µM
# [25] = second compound 1 µM, first compound 0.1 µM
# [26] = second compound 1 µM, first compound 1 µM
# [27] = second compound 1 µM, first compound 3.16 µM
# [28] = second compound 1 µM, first compound 10 µM
# [29] = second compound 3.16 µM, first compound 0.1 µM
# [30] = second compound 3.16 µM, first compound 1 µM
# [31] = second compound 3.16 µM, first compound 3.16 µM
# [32] = second compound 3.16 µM, first compound 10 µM
# [33] = second compound 10 µM, first compound 0.1 µM
# [34] = second compound 10 µM, first compound 1 µM
# [35] = second compound 10 µM, first compound 3.16 µM
# [36] = second compound 10 µM, first compound 10 µM
# 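Note: spheroids exposed to the agents for seven days before readout.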
# 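Throughout, for viability, T/C: percent viability relative to DMSO vehicle control wells = 100%.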
smiles,measurement,setting,value
CC[C@@]1(O)C(=O)OCc2c1cc1n(c2=O)Cc2cc3c(CN(C)C)c(O)ccc3nc2-1 + CN(C)c1ccc(Nc2c3ccc(NC(=O)CCN4CCCC4)cc3nc3cc(NC(=O)CCN4CCCC4)ccc23)cc1,pIC50,second compound 0.0316 µM,< 6.50
same,pIC50,second compound 0.1 µM,< 6.50
same,pIC50,second compound 0.316 µM,< 6.50
same,pIC50,second compound 1 µM,< 6.50
same,pIC50,second compound 3.16 µM,< 6.50
same,pIC50,second compound 10 µM,< 6.50
same,"viability, T/C","second compound 0.0316 µM, first compound 0.000999 µM",99.2%
same,"viability, T/C","second compound 0.0316 µM, first compound 0.00316 µM",105%
same,"viability, T/C","second compound 0.0316 µM, first compound 0.00999 µM",126%
same,"viability, T/C",[1],107%
same,"viability, T/C","second compound 0.0316 µM, first compound 0.0999 µM",112%
same,"viability, T/C",[2],90.4%
same,"viability, T/C","second compound 0.1 µM, first compound 0.000999 µM",120%
same,"viability, T/C","second compound 0.1 µM, first compound 0.00316 µM",93.2%
same,"viability, T/C","second compound 0.1 µM, first compound 0.00999 µM",98.7%
same,"viability, T/C",[3],101%
same,"viability, T/C","second compound 0.1 µM, first compound 0.0999 µM",84.5%
same,"viability, T/C",[4],90.1%
same,"viability, T/C","second compound 0.316 µM, first compound 0.000999 µM",108%
same,"viability, T/C","second compound 0.316 µM, first compound 0.00316 µM",120%
same,"viability, T/C","second compound 0.316 µM, first compound 0.00999 µM",108%
same,"viability, T/C",[5],90.1%
same,"viability, T/C","second compound 0.316 µM, first compound 0.0999 µM",85.8%
same,"viability, T/C",[6],101%
same,"viability, T/C","second compound 1 µM, first compound 0.000999 µM",106%
same,"viability, T/C","second compound 1 µM, first compound 0.00316 µM",105%
same,"viability, T/C","second compound 1 µM, first compound 0.00999 µM",115%
same,"viability, T/C",[7],114%
same,"viability, T/C","second compound 1 µM, first compound 0.0999 µM",97.6%
same,"viability, T/C",[8],81.8%
same,"viability, T/C","second compound 3.16 µM, first compound 0.000999 µM",103%
same,"viability, T/C","second compound 3.16 µM, first compound 0.00316 µM",97%
same,"viability, T/C","second compound 3.16 µM, first compound 0.00999 µM",122%
same,"viability, T/C",[9],125%
same,"viability, T/C","second compound 3.16 µM, first compound 0.0999 µM",124%
same,"viability, T/C",[10],95.9%
same,"viability, T/C","second compound 10 µM, first compound 0.000999 µM",112%
same,"viability, T/C","second compound 10 µM, first compound 0.00316 µM",89.3%
same,"viability, T/C","second compound 10 µM, first compound 0.00999 µM",110%
same,"viability, T/C",[11],97.1%
same,"viability, T/C","second compound 10 µM, first compound 0.0999 µM",91.6%
same,"viability, T/C",[12],90.1%
Nc1ccn(C2OC(CO)C(O)C2(F)F)c(=O)n1 (stereo unspecified) + Cc1[nH]c2ccc(F)cc2c1-c1nc2c3cccnc3c3ncccc3c2[nH]1,pIC50,second compound 0.0316 µM,< 5.00
same,pIC50,second compound 0.1 µM,5.19
same,pIC50,second compound 0.316 µM,< 5.00
same,pIC50,second compound 1 µM,< 5.00
same,pIC50,second compound 3.16 µM,< 5.00
same,pIC50,second compound 10 µM,< 5.00
same,"viability, T/C",[1],112%
same,"viability, T/C",[13],78.3%
same,"viability, T/C",[2],77.8%
same,"viability, T/C",[14],74.3%
same,"viability, T/C",[15],68.1%
same,"viability, T/C",[16],54.6%
same,"viability, T/C",[3],128%
same,"viability, T/C",[17],94.5%
same,"viability, T/C",[4],63.7%
same,"viability, T/C",[18],64.5%
same,"viability, T/C",[19],56.5%
same,"viability, T/C",[20],59.6%
same,"viability, T/C",[5],116%
same,"viability, T/C",[21],99.5%
same,"viability, T/C",[6],59.8%
same,"viability, T/C",[22],70.5%
same,"viability, T/C",[23],47.8%
same,"viability, T/C",[24],66.9%
same,"viability, T/C",[7],117%
same,"viability, T/C",[25],112%
same,"viability, T/C",[8],72.4%
same,"viability, T/C",[26],49%
same,"viability, T/C",[27],60.6%
same,"viability, T/C",[28],74%
same,"viability, T/C",[9],96.4%
same,"viability, T/C",[29],97%
same,"viability, T/C",[10],70.8%
same,"viability, T/C",[30],58.1%
same,"viability, T/C",[31],55.4%
same,"viability, T/C",[32],52.2%
same,"viability, T/C",[11],102%
same,"viability, T/C",[33],103%
same,"viability, T/C",[12],62.9%
same,"viability, T/C",[34],45.6%
same,"viability, T/C",[35],59%
same,"viability, T/C",[36],49%
CC(=O)O[C@H]1C(=O)[C@@]2(C)[C@H]([C@H](OC(=O)c3ccccc3)[C@]3(O)C[C@H](OC(=O)[C@H](O)[C@@H](NC(=O)c4ccccc4)c4ccccc4)C(C)=C1C3(C)C)[C@]1(OC(C)=O)CO[C@@H]1C[C@@H]2O + Cc1[nH]c2ccc(F)cc2c1-c1nc2c3cccnc3c3ncccc3c2[nH]1,pIC50,second compound 0.0316 µM,6.35
same,pIC50,second compound 0.1 µM,6.56
same,pIC50,second compound 0.316 µM,6.35
same,pIC50,second compound 1 µM,6.30
same,pIC50,second compound 3.16 µM,6.27
same,pIC50,second compound 10 µM,6.39
same,"viability, T/C",[1],90.7%
same,"viability, T/C",[13],82%
same,"viability, T/C",[2],58.2%
same,"viability, T/C",[14],31.2%
same,"viability, T/C",[15],18%
same,"viability, T/C",[16],15.5%
same,"viability, T/C",[3],86.8%
same,"viability, T/C",[17],94.6%
same,"viability, T/C",[4],44.2%
same,"viability, T/C",[18],35.9%
same,"viability, T/C",[19],20.7%
same,"viability, T/C",[20],13.9%
same,"viability, T/C",[5],104%
same,"viability, T/C",[21],86.1%
same,"viability, T/C",[6],57.2%
same,"viability, T/C",[22],33.4%
same,"viability, T/C",[23],19.2%
same,"viability, T/C",[24],17.3%
same,"viability, T/C",[7],89.6%
same,"viability, T/C",[25],92.6%
same,"viability, T/C",[8],50.1%
same,"viability, T/C",[26],43.1%
same,"viability, T/C",[27],21.2%
same,"viability, T/C",[28],17.4%
same,"viability, T/C",[9],83.3%
same,"viability, T/C",[29],84.2%
same,"viability, T/C",[10],58.2%
same,"viability, T/C",[30],38.7%
same,"viability, T/C",[31],22.8%
same,"viability, T/C",[32],21.6%
same,"viability, T/C",[11],87.6%
same,"viability, T/C",[33],84.5%
same,"viability, T/C",[12],48.3%
same,"viability, T/C",[34],40.3%
same,"viability, T/C",[35],23.7%
same,"viability, T/C",[36],22.8%
